Test results reported in patent US10995322B2, “Processes to prepare elongated 2-ketoacids and C5-C10 compounds therefrom via genetic modifications to microbial metabolic pathways” (priority 2016, dated 2021).

Experiments:
[1] = molecular target: Citrobacter freundii MGH 56 isopropylmalate synthase (Gene Accession No. KDF09799, SEQ ID NO: 1) variant 1466, G210A/A214S/H97A/S139G/N167G/P169A/G462D (Citrobacter freundii, UniProt A0A0D7LMP4, A214S/G210A/G462D/H97A/N167G/P169A/S139G); assay type: biochemical; conditions: acetyl-CoA 0-10 mM, 2-ketooctanoate 2 mM, pH 7.5, 30° C.
Sequence of Citrobacter freundii MGH 56 isopropylmalate synthase (Gene Accession No. KDF09799, SEQ ID NO: 1) variant 1466, G210A/A214S/H97A/S139G/N167G/P169A/G462D (A0A0D7LMP4 entry or part of it A214S/G210A/G462D/H97A/N167G/P169A/S139G): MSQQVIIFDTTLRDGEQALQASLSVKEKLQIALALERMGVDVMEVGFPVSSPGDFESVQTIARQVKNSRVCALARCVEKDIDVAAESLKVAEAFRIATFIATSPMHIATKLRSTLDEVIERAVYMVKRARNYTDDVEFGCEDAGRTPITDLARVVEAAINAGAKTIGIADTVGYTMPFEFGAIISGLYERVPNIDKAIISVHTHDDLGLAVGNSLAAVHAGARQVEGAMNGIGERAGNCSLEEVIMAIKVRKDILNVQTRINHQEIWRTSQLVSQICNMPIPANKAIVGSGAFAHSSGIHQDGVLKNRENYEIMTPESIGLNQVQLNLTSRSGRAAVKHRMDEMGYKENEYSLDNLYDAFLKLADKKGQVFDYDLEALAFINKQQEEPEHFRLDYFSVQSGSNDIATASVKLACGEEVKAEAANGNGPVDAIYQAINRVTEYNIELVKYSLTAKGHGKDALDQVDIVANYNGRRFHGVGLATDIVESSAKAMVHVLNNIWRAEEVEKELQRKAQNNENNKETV

[2] = molecular target: Enterobacter cloacae isopropylmalate synthase (Gene Accession No. WP_014830637, SEQ ID NO: 2) variant 1460, D348E/D350E/M353L/Q355N/H97A/S139G/N167G/P169A/G462D (Enterobacter cloacae, UniProt A0A0H3CGL5, D348E/D350E/G462D/H97A/M353L/N167G/P169A/Q355N/S139G); conditions: pH 7.5, 30° C.
Sequence of Enterobacter cloacae isopropylmalate synthase (Gene Accession No. WP_014830637, SEQ ID NO: 2) variant 1460, D348E/D350E/M353L/Q355N/H97A/S139G/N167G/P169A/G462D (A0A0H3CGL5 entry or part of it D348E/D350E/G462D/H97A/M353L/N167G/P169A/Q355N/S139G): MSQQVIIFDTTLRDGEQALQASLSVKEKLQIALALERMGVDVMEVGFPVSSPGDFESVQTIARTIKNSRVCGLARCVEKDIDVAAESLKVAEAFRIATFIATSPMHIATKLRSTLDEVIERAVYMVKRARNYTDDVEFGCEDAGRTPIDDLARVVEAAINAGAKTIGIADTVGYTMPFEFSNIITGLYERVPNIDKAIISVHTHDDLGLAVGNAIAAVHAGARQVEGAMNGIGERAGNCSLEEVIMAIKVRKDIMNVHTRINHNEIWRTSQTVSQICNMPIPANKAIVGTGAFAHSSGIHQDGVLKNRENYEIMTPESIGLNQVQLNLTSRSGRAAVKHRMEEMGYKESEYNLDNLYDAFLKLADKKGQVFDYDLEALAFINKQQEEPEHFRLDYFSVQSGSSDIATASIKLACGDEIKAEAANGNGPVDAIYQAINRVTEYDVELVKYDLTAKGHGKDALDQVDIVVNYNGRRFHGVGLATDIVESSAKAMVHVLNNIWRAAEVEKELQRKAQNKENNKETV

[3] = molecular target: Citrobacter freundii MGH 56 isopropylmalate synthase (Gene Accession No. KDF09799, SEQ ID NO: 1) variant 1467, G181A/A182G/G210A/A214S/H97A/S139G/N167G/P169A/G4 (Citrobacter freundii, UniProt A0A0D7LMP4, A182G/A214S/G181A/G210A/G462D/H97A/N167G/P169A/S139G); conditions: pH 7.5, 30° C.
Sequence of Citrobacter freundii MGH 56 isopropylmalate synthase (Gene Accession No. KDF09799, SEQ ID NO: 1) variant 1467, G181A/A182G/G210A/A214S/H97A/S139G/N167G/P169A/G4 (A0A0D7LMP4 entry or part of it A182G/A214S/G181A/G210A/G462D/H97A/N167G/P169A/S139G): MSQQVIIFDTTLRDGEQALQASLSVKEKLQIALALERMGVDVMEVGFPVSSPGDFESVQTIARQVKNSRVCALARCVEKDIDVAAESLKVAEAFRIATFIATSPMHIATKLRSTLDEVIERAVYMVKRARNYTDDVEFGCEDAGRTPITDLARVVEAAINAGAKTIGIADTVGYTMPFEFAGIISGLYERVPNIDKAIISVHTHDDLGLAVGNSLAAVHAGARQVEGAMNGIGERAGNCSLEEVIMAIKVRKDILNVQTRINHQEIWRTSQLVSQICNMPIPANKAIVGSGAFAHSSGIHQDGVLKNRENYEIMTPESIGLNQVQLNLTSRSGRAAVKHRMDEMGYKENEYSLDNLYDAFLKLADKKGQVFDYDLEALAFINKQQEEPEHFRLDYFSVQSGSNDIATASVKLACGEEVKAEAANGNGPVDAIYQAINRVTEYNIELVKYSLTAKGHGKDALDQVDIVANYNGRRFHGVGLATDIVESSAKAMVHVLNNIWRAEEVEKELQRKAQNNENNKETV

[4] = molecular target: Enterobacter cloacae isopropylmalate synthase (Gene Accession No. WP_014830637, SEQ ID NO: 2) variant 1414, H97A/S139G/N167G/P169A/G462D (Enterobacter cloacae, UniProt A0A0H3CGL5, G462D/H97A/N167G/P169A/S139G); conditions: pH 7.5, 30° C.
Sequence of Enterobacter cloacae isopropylmalate synthase (Gene Accession No. WP_014830637, SEQ ID NO: 2) variant 1414, H97A/S139G/N167G/P169A/G462D (A0A0H3CGL5 entry or part of it G462D/H97A/N167G/P169A/S139G): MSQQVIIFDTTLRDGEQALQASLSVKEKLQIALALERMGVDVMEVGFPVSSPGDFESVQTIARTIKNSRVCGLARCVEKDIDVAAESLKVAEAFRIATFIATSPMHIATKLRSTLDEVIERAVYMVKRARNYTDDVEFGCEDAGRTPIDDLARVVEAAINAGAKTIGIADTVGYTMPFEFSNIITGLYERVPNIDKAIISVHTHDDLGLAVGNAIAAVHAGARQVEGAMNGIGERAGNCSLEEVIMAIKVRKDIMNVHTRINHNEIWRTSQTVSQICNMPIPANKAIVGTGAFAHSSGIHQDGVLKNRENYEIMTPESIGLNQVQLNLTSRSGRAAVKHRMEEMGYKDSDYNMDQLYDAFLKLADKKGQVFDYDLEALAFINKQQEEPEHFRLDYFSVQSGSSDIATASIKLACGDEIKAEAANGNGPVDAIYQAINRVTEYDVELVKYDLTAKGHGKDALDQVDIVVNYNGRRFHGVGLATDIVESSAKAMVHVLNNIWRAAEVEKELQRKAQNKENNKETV

[5] = molecular target: Enterobacter cloacae isopropylmalate synthase (Gene Accession No. WP_014830637, SEQ ID NO: 2) variant 1457, M255L/R260A/N264Q/H97A/S139G/N167G/P169A/G462D (Enterobacter cloacae, UniProt A0A0H3CGL5, G462D/H97A/M255L/N167G/N264Q/P169A/R260A/S139G); conditions: pH 7.5, 30° C.
Sequence of Enterobacter cloacae isopropylmalate synthase (Gene Accession No. WP_014830637, SEQ ID NO: 2) variant 1457, M255L/R260A/N264Q/H97A/S139G/N167G/P169A/G462D (A0A0H3CGL5 entry or part of it G462D/H97A/M255L/N167G/N264Q/P169A/R260A/S139G): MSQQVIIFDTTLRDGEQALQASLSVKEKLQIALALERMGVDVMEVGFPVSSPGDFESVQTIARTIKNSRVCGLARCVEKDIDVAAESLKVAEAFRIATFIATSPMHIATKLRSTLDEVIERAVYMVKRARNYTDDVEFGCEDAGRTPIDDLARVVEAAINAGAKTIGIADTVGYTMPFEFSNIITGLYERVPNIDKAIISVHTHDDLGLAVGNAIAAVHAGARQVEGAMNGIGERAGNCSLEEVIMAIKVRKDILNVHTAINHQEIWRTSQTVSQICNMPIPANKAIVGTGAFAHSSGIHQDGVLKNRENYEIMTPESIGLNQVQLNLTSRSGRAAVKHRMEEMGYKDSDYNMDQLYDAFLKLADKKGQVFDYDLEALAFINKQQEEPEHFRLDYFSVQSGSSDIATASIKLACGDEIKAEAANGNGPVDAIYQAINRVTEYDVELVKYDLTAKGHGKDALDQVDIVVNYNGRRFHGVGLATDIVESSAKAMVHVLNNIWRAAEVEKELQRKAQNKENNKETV

[6] = molecular target: Citrobacter freundii MGH 56 isopropylmalate synthase (Gene Accession No. KDF09799, SEQ ID NO: 1) variant 1409, H97A/S139G/N167G/P169A/G462D (Citrobacter freundii, UniProt A0A0D7LMP4, G462D/H97A/N167G/P169A/S139G); conditions: pH 7.5, 30° C.
Sequence of Citrobacter freundii MGH 56 isopropylmalate synthase (Gene Accession No. KDF09799, SEQ ID NO: 1) variant 1409, H97A/S139G/N167G/P169A/G462D (A0A0D7LMP4 entry or part of it G462D/H97A/N167G/P169A/S139G): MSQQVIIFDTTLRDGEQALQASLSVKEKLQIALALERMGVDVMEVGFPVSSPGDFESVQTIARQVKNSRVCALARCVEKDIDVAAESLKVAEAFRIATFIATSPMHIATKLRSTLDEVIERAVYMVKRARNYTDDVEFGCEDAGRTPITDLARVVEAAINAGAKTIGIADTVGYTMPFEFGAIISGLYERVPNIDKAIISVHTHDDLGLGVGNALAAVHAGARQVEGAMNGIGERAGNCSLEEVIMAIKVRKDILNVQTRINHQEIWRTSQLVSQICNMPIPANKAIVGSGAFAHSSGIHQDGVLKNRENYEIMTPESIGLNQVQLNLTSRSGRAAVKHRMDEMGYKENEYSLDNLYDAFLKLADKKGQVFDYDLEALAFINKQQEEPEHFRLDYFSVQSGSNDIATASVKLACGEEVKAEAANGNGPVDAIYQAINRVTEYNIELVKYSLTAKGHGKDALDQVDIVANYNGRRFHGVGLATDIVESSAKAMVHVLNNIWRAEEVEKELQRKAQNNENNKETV

[7] = tested on: CCCCCCC(=O)C(=O)O; assay: purified protein, by the assay type; conditions: pH 7.5; 30.0 °C
[8] = tested on: Citrobacter freundii MGH 56 isopropylmalate synthase (Gene Accession No. KDF09799, SEQ ID NO: 1) variant 1467, G181A/A182G/G210A/A214S/H97A/S139G/N167G/P169A/G4 …; conditions: 2-ketooctanoate
[9] = tested on: CC(=O)SCCNC(=O)CCNC(=O)[C@H](O)C(C)(C)COP(=O)(O)OP(=O)(O)OC[C@H]1O[C@@H](n2cnc3c(N)ncnc32)[C@H](O)[C@@H]1OP(=O)(O)O; assay: purified protein, by the assay type; conditions: pH 7.5; 30.0 °C
[10] = substrate: CC(=O)SCCNC(=O)CCNC(=O)[C@H](O)C(C)(C)COP(=O)(O)OP(=O)(O)OC[C@H]1O[C@@H](n2cnc3c(N)ncnc32)[C@H](O)[C@@H]1OP(=O)(O)O; assay: Kinetic evaluation of isopropylmalate synthase construct 614 (DTNB/CoASH assay); assay type: biochemical, E. coli; conditions: other: acetyl-CoA 0-10 mM, 2-ketooctanoate 2 mM, pH 7.5, 30° C.
Method: (§1) Codons of 13 additional amino acids that included six histidine's were fused upstream of the codon of Met-1 of each IPMS gene sequence. Such a modification allowed expression of a His-tagged IPMS having 13 additional amino acids on the N-terminus. To the resulting modified gene, additional bases were added to introduce a NcoI and a SacI restriction site at the 5′- and 3′-end, respectively, for cloning purposes. The whole DNA sequence was chemically synthesized and cloned into the E. coli expression vector, pETDuet-1 at the NcoI and SacI sites by SGI Inc. His-tagged IPMSs were heterologously expressed in E. coli BL21 (DE3) cells and purified using Co-NTA chromatography. It is noted that none of the Sequence Listings included herein show the histidine-tag that is used, which in this case is […]
(§2) For expressing isopropylmalate synthases and its variants, competent cells of E. coli BL21(DE3) cells (acquired from EMD Biosciences) were transformed using standard procedures with the pETDuet expression vector containig their gene sequences. Cells harboring the expression vector were selected on LB agar plates containing 50 μg/mL of ampicillin. A starter culture was started by transferring a single colony of transformant into 50 mL of LB medium containing 100 μg/mL of ampicillin and incubated at 37° C. with shaking at 220 rpm overnight. On the next day, 7 mL of starter culture was inoculated into 800 mL of Terrific Broth (TB) and the culture was incubated at 37° C. until it reached an OD600 nm of 0.5. Isopropyl β-D-1-thiogalacto-pyranoside (IPTG) at a final concentration of 1 mM was added to induce the expression of the isopropylmalate synthase or its variant and the culture was transferred to a 15° C. incubator for 16 hours (h). At the end of 16 h, the culture was centrifuged at 8000 revolutions per minute (rpm) to pelletize the cells. The cell pellet was stored at −80° C. overnight before purification.
(§3) For isolation and purification of the enzyme, cell pellet taken from 400 mL of expression culture was suspended in B-PER reagent (Thermo Fisher Scientific, Inc., Rockford, Ill.) containing 1 μg/mL of DNAse (Thermo Fisher Scientific, Inc., Rockford, Ill.), 1 μg/mL of lysozyme (Thermo Fisher Scientific, Inc., Rockford, Ill.), 1 millimolar (mM) of dithiothreitol, and protease inhibitor cocktail (RPI Corp., Mount Prospect, Ill.). The suspension was rocked gently for 30 minutes (min) at room temperature and centrifuged at 15,000 times gravity (×g) for 20 min to pelletize cell debris. The supernatant was separated and incubated with 5 mL of Co-NTA resin (Thermo Fisher Scientific, Inc., Rockford, Ill.) that had been pre-equilibrated with an equilibration buffer (50 mM sodium phosphate, pH 8.0, containing 300 mM sodium chloride, 20 mM imidazole, 50 μL protease inhibitor cocktail, and 15% glycerol). Following an incubation period of 1 h at 4° C., the enzyme bound resin was washed with 5 volumes of equilibration buffer. Isopropylmalate synthase or its variants were eluted from the Co-NTA resin with equilibration buffer containing 200 mM imidazole. The eluted proteins were dialyzed against phosphate buffered saline and stored as a 20% glycerol solution at −20° C.
(§4) The evaluation of the LeuA variants was performed in two steps using the high-throughput enzyme assay described below. Initially, all the variants were tested for activity against a single high concentration of 2-KBut, 2-KHex, and 2-KOct. The spectrophotometric isopropylmalate synthase enzyme assay reported by Marcheschi et al (Marcheschi, R. J.; Li, H.; Zhang, K.; Noey, E. L.; Kim, S.; Chaubey, A.; Houk, K. N.; Liao, J. C. A synthetic recursive “+1” pathway for carbon chain elongation. ACS chemical biology 2012, 7, 689-697) was adapted into a high-throughput format in 96-well plates for the kinetic evaluation of the isopropylmalate synthase variants (shown in Table 1). […]

[11] = substrate: CCCCCCC(=O)C(=O)O; assay: as above; assay type: biochemical, E. coli; conditions: other: 2-ketooctanoate 0-3.2 mM, acetyl-CoA 2 mM, pH 7.5, 30° C.
Method: as §1, §2, §3, §4

[12] = acetyl-CoA 0-10 mM, 2-ketooctanoate 2 mM
[13] = 2-ketooctanoate 0-3.2 mM, acetyl-CoA 2 mM

In the case of `CC(=O)SCCNC(=O)CCNC(=O)[C@H](O)C(C)(C)COP(=O)(O)OP(=O)(O)OC[C@H]1O[C@@H](n2cnc3c(N)ncnc32)[C@H](O)[C@@H]1OP(=O)(O)O` [acetyl CoA, acetyl coenzyme A], the “kcat (acetyl CoA)” value [1] is reported as 0.4 ± 0.04 s⁻¹, the “kcat (acetyl CoA)” value [2, 12] is reported as 3.43 ± 0.267 s⁻¹ and the “kcat (acetyl CoA)” value [3, 12] is reported as 5.2 ± 0.25 s⁻¹. For the same molecule, the “kcat (acetyl CoA)” value [4, 12] was 2.35 ± 0.083 s⁻¹, the “kcat (acetyl CoA)” value [5, 12] was 3.83 ± 0.083 s⁻¹ and the “kcat (acetyl CoA)” value [6, 12] was 0.118 ± 0.02 s⁻¹.

“Citrobacter freundii MGH 56 isopropylmalate synthase (Gene Accession No. KDF09799, SEQ ID NO: 1) variant 1467, G181A/A182G/G210A/A214S/H97A/S139G/N167G/P169A/G462D (Citrobacter freundii; A182G/A214S/G181A/G210A/G462D/H97A/N167G/P169A/S139G)” gave a Km [7] of 92 ± 9 µM.

Molecule “Enterobacter cloacae isopropylmalate synthase (Gene Accession No. WP_014830637, SEQ ID NO: 2) variant 1414, H97A/S139G/N167G/P169A/G462D (Enterobacter cloacae subsp. cloacae ATCC 13047; G462D/H97A/N167G/P169A/S139G)” has a Km [7] of 124 ± 8 µM.

For `CCCCCCC(=O)C(=O)O` [2-Ketooctanoic acid, 2-ketooctanoic acid], the “kcat (2-ketooctanoic acid)” value [2, 13] was 3.5 ± 0.0583 s⁻¹, the “kcat/KM (2-ketooctanoic acid)” value [2, 13] was 20620 ± 983 M⁻¹ s⁻¹ and the “% more efficient than construct 614 in capturing 2-ketooctanoate (kcat/KM)” value ([8]; vs E. coli construct 614) was 30-40%. For the same molecule, the “fold more efficient than parent construct 1409 in capturing 2-ketooctanoate (kcat/KM)” value ([8]; vs parent 1409) was 9 fold, the “kcat (2-ketooctanoic acid)” value [3, 13] was 2.47 ± 0.083 s⁻¹ and the “kcat/KM (2-ketooctanoic acid)” value [3, 13] was 26450 ± 1970 M⁻¹ s⁻¹. For the same molecule, the “kcat (2-ketooctanoic acid)” value [4, 13] was 2.8 ± 0.065 s⁻¹, the “kcat/KM (2-ketooctanoic acid)” value [4, 13] was 22580 ± 983 M⁻¹ s⁻¹ and the “kcat (2-ketooctanoic acid)” value [5, 13] was 4.12 ± 0.09 s⁻¹. For the same molecule, the “kcat/KM (2-ketooctanoic acid)” value [5, 13] was 23550 ± 983 M⁻¹ s⁻¹, the “kcat (2-ketooctanoic acid)” value [6, 13] was 0.205 ± 0.0083 s⁻¹ and the “kcat/KM (2-ketooctanoic acid)” value [6, 13] was 2930 ± 300 M⁻¹ s⁻¹.

Work on “Enterobacter cloacae isopropylmalate synthase (Gene Accession No. WP_014830637, SEQ ID NO: 2) variant 1457, M255L/R260A/N264Q/H97A/S139G/N167G/P169A/G462D (Enterobacter cloacae subsp. cloacae ATCC 13047; G462D/H97A/M255L/N167G/N264Q/P169A/R260A/S139G)” yielded a Km [7] of 176 ± 9 µM.

Molecule “Enterobacter cloacae isopropylmalate synthase (Gene Accession No. WP_014830637, SEQ ID NO: 2) variant 1460, D348E/D350E/M353L/Q355N/H97A/S139G/N167G/P169A/G462D (Enterobacter cloacae subsp. cloacae ATCC 13047; D348E/D350E/G462D/H97A/M353L/N167G/P169A/Q355N/S139G)” has a Km [7] of 170 ± 7 µM.

Work on “Citrobacter freundii MGH 56 isopropylmalate synthase (Gene Accession No. KDF09799, SEQ ID NO: 1) variant 1409, H97A/S139G/N167G/P169A/G462D (Citrobacter freundii; G462D/H97A/N167G/P169A/S139G)” yielded a Km [7] of 64 ± 9 µM and a Km [9] of 450 ± 240 µM.

B1: E. coli isopropylmalate synthase (LeuA, Gene Accession No. EG11226) variant 614, H97A/S139G/N167G/P169A/G462D (Escherichia coli K-12; … (protein)
chain: MSQQVIIFDTTLRDGEQALQASLSVKEKLQIALALERMGVDVMEVGFPVSSPGDFESVQTIARQVKNSRVCALARCVEKDIDVAAESLKVAEAFRIATFIATSPMHIATKLRSTLDEVIERAIYMVKRARNYTDDVEFGCEDAGRTPIADLARVVEAAINAGATTIGIADTVGYTMPFEFAGIISGLYERVPNIDKAIISVHTHDDLGLAVGNSLAAVHAGARQVEGAMNGIGERAGNCSLEEVIMAIKVRKDILNVHTAINHQEIWRTSQLVSQICNMPIPANKAIVGSGAFAHSSGIHQDGVLKNRENYEIMTPESIGLNQIQLNLTSRSGRAAVKHRMDEMGYKESEYNLDNLYDAFLKLADKKGQVFDYDLEALAFIGKQQEEPEHFRLDYFSVQSGSNDIATAAVKLACGEEVKAEAANGNGPVDAVYQAINRITEYNVELVKYSLTAKGHGKDALDQVDIVANYNGRRFHGVGLATDIVESSAKAMVHVLNNIWRAAEVEKELQRKAQHNENNKETV
notes: His-tag (13 additional amino acids, six histidines) (N); made in house; host or cells: E. coli BL21 (DE3)
Work on B1 yielded a Km [10] of 830 ± 50 µM, a kcat [10] of 4.4 ± 0.133 s⁻¹ and a kcat/Km [10] of 5370 ± 383 M⁻¹ s⁻¹. The Km [11] was 250 ± 35 µM, the kcat [11] was 4.53 ± 0.3 s⁻¹ and the kcat/Km [11] was 18600 ± 1950 M⁻¹ s⁻¹.
